The results in this text go back to patent US20170190705A1, “Compositions and Methods for Inhibiting BMP” (THE BRIGHAM AND WOMAN'S HOSPITAL, INC., priority 2014, published 2017).

Common to all, as to assay type: biochemical
One test concerns the target T1, EPHA3 (Homo sapiens, UniProt P29320).
T1 sequence (P29320 21-983): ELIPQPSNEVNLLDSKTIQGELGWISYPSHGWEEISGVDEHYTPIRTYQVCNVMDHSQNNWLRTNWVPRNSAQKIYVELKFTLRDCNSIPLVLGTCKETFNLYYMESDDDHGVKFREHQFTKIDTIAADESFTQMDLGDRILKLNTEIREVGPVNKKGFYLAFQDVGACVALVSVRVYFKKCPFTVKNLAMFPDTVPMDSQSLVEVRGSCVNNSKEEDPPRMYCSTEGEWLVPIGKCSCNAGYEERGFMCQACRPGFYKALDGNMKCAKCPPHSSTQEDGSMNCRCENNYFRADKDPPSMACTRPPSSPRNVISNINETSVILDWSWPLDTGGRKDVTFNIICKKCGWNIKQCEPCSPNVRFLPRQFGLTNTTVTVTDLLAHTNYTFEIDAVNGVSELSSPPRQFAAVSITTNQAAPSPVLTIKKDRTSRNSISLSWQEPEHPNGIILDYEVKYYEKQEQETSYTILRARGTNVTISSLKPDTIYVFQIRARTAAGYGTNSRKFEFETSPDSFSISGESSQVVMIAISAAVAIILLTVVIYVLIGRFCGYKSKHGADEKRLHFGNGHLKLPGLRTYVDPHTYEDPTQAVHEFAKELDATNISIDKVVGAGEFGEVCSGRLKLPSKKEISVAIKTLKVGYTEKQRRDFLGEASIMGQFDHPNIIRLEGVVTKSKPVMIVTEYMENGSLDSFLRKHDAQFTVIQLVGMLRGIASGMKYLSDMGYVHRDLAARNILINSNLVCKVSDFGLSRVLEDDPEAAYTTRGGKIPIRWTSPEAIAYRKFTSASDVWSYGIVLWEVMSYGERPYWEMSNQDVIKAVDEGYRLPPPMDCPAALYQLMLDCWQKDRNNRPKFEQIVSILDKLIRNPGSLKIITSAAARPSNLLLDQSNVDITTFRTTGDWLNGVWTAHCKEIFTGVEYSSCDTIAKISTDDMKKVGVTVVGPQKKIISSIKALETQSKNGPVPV
Put plainly: Kinome profiling EPHA3. As to conditions: read-out: Inhibitory activity EPHA3; for inhibition at 0.1 µM: 100 nM. Here is the method:
(§1) . The kinome-wide selectivity was determined following the methods previously reported by Mohedas et al., ACS Chem Biol 2013, 8, 1291-1302 and Sanvitale et al., PLoS One 2013, 8, e62721.

In another test the target is GSK3β (Homo sapiens, UniProt P49841). In words: Kinome profiling GSK3β. The settings on record: read-out: Inhibitory activity GSK3β; for inhibition at 0.1 µM: 100 nM. The protocol:
as §1

The next test deals with T2, PRKG2 (Homo sapiens, UniProt Q13237).
T2 sequence (Q13237 1-762): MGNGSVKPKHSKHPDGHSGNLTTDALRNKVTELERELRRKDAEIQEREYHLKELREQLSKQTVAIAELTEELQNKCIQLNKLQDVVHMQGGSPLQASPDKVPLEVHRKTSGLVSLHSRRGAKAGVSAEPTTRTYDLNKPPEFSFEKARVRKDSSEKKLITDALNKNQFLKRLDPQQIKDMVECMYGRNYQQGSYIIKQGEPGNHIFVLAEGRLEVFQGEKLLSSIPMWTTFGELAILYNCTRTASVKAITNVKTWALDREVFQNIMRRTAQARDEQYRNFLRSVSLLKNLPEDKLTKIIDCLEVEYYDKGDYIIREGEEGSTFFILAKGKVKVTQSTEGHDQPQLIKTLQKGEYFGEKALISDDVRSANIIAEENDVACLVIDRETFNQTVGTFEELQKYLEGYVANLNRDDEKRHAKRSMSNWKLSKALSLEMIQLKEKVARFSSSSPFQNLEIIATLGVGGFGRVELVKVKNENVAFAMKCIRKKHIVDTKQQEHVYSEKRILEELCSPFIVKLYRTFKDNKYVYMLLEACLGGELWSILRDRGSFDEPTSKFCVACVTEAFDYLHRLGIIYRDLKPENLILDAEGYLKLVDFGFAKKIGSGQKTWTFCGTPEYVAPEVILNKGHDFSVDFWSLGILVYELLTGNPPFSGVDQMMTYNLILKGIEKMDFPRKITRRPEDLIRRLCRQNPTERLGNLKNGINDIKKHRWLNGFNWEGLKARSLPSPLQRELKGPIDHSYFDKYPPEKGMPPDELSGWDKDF
In words: Kinome profiling PRKG2. The settings on record: read-out: Inhibitory activity PRKG2; for inhibition at 0.1 µM: 100 nM. Here is the method: as §1

Another test deals with MAP4K4 (Homo sapiens, UniProt O95819). In words: Kinome profiling MAP4K4. As to conditions: for inhibition at 0.1 µM: 100 nM. The protocol:
as §1

For a further test, the target named is MAPK3 (Homo sapiens, UniProt P27361). In words: Kinome profiling MAPK3. The settings on record: read-out: Inhibitory activity MAPK3; for inhibition at 0.1 µM: 100 nM. The protocol: as §1
The target of the next test is T3, TNK1 (Homo sapiens, UniProt Q13470).
T3 sequence (Q13470 1-666): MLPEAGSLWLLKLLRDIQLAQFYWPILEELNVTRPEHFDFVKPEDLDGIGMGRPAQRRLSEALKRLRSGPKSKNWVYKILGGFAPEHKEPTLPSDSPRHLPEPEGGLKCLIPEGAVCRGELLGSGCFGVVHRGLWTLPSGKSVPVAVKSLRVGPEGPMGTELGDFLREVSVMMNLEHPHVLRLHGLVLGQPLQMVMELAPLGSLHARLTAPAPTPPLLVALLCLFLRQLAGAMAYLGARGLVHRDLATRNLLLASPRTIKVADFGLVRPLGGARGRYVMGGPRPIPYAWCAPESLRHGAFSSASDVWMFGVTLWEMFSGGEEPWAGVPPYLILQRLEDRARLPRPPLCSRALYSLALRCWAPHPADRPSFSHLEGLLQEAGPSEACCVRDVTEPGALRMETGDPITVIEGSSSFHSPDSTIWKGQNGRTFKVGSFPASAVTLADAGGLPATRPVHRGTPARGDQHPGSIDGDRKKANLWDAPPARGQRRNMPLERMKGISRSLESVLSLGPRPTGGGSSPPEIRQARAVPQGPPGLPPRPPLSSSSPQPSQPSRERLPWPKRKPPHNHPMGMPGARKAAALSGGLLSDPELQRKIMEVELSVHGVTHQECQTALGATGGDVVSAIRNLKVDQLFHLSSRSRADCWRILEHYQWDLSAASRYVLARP
In words: Kinome profiling TNK1. As to conditions: read-out: Inhibitory activity TNK1; for inhibition at 0.1 µM: 100 nM. The protocol:
as §1

Another test deals with LRRK2-G2019S (Homo sapiens, UniProt Q5S007, G2019S). In words: Kinome profiling LRRK2-G2019S. As to conditions: read-out: Inhibitory activity LRRK2-G2019S; for inhibition at 0.1 µM: 100 nM. Here is the method: as §1
The mark [1] stands for this setting: read-out: Inhibitory activity MAP4K4.
[2] abbreviates: Table 4, read-out: Inhibitory Activity MAP4K4.

Read-outs that look alike come from different tables or passages of the source.

GSK3β, sequence (P49841 whole entry): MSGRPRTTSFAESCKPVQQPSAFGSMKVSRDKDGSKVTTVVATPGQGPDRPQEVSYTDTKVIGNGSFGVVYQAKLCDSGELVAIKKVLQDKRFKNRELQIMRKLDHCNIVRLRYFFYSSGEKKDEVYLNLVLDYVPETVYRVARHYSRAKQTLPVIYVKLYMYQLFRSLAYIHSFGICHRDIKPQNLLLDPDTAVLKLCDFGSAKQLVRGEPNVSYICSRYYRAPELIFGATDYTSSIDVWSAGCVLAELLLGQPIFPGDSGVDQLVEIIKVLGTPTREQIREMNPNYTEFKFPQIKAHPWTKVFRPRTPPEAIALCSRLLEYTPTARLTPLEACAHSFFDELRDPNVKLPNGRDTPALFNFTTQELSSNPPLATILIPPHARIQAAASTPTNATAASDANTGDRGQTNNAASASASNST
MAPK3, sequence (P27361 whole entry): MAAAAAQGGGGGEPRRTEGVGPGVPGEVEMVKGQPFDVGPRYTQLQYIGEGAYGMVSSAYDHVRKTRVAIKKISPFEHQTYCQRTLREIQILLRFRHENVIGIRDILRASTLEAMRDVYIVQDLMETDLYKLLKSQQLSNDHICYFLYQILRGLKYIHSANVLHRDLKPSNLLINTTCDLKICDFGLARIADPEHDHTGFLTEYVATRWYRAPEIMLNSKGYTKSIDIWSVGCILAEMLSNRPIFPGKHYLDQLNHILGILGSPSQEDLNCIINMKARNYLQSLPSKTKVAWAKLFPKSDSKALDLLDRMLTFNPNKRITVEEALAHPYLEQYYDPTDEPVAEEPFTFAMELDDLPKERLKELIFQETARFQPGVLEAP
LRRK2-G2019S, sequence (Q5S007 whole entry G2019S): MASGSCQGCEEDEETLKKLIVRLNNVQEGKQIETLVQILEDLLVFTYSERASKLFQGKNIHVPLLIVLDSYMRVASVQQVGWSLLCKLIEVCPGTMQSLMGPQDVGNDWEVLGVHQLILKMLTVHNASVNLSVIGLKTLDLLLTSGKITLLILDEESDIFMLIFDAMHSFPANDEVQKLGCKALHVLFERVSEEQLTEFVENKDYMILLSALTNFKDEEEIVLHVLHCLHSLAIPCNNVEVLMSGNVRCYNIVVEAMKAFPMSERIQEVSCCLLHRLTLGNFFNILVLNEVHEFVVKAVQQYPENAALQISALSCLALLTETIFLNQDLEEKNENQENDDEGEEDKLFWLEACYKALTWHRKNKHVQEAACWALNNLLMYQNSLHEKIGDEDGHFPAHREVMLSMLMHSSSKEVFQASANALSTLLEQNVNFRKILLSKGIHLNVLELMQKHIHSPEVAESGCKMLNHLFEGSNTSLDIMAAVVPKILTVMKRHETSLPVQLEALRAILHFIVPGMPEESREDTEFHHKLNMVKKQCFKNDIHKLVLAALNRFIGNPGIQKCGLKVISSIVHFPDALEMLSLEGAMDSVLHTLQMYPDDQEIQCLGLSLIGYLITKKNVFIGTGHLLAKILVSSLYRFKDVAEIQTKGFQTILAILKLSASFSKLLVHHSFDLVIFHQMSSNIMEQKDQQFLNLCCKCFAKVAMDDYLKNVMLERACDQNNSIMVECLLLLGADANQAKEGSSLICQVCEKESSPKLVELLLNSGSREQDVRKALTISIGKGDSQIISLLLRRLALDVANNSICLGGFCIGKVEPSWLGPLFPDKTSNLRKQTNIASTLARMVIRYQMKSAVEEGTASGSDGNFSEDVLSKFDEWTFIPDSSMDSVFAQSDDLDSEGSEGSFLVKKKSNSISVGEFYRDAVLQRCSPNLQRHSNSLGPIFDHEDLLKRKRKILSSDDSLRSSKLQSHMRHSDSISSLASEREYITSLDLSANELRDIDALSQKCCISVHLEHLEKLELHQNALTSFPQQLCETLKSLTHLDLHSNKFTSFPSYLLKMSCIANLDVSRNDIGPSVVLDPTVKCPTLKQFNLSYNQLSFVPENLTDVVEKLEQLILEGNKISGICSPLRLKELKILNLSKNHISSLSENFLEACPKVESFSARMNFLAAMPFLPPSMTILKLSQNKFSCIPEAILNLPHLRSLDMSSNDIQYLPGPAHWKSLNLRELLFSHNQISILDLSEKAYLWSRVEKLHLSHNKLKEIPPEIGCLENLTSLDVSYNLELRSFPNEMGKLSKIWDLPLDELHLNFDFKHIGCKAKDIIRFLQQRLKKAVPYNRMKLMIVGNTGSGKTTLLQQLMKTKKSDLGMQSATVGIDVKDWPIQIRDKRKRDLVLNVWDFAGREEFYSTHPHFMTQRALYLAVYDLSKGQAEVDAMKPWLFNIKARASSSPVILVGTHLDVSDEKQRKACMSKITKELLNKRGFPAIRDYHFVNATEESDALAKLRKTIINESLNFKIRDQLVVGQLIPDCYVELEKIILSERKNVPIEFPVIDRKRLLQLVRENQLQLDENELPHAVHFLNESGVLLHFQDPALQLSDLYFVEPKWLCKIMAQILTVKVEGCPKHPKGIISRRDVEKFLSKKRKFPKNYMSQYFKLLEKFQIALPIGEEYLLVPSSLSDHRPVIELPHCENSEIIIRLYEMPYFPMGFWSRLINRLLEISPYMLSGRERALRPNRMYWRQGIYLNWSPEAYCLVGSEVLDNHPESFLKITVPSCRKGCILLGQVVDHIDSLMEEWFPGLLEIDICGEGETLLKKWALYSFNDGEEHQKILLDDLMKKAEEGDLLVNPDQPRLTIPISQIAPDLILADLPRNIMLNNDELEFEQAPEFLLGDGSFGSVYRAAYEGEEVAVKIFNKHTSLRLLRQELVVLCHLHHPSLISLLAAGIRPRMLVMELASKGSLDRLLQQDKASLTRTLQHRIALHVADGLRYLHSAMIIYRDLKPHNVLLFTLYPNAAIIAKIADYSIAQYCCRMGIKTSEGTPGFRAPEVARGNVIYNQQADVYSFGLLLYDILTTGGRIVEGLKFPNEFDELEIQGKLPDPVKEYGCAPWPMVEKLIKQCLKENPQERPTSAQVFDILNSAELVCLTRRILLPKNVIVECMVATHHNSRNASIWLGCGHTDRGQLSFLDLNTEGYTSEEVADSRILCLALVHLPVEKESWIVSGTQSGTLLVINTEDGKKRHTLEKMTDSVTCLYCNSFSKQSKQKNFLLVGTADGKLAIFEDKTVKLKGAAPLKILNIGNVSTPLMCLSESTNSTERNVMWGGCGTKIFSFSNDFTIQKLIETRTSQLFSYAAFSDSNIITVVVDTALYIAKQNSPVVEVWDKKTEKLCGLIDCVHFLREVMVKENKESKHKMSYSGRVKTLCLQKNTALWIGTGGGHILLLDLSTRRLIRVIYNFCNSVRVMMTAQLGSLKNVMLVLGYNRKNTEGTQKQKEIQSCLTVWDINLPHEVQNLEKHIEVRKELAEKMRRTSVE
MAP4K4, sequence (O95819 whole entry): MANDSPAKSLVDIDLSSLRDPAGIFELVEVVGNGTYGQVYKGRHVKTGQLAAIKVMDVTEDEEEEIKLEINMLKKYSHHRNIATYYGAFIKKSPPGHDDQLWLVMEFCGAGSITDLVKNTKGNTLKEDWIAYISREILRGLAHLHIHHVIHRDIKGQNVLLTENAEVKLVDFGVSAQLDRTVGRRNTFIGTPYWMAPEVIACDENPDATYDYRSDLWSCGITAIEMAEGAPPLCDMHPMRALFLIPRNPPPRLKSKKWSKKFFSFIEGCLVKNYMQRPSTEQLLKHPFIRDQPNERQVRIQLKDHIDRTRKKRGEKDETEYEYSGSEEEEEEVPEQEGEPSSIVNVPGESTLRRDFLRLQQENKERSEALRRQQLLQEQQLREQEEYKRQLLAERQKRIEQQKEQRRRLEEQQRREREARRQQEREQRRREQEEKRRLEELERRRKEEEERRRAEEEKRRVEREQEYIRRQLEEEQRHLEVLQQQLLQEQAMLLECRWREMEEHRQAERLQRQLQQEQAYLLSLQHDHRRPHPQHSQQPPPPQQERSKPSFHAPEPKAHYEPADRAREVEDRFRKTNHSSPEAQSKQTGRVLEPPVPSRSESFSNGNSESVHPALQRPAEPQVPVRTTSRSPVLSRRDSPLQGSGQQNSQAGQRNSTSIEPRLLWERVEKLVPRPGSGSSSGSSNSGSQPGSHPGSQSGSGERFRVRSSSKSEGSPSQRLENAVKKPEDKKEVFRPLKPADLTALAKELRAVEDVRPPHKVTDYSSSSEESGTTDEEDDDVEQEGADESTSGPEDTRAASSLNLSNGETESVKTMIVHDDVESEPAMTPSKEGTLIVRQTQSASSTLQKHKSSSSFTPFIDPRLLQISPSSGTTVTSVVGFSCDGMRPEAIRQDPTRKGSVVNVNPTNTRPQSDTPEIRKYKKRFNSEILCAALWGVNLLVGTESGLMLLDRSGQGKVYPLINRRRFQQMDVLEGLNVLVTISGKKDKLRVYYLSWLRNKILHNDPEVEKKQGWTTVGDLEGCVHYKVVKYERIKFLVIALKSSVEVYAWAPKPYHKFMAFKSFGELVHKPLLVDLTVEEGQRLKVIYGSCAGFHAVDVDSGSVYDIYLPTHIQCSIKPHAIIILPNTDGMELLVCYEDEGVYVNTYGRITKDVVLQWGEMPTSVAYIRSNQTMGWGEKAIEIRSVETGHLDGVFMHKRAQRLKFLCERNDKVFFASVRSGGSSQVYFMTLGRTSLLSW

For `COc1cc(-c2cc(-c3ccc(N4CCNCC4)cc3)cnc2N)cc(OC)c1OC` [Compound 15, 5-(4-(piperazin-1-yl)phenyl)-3-(3,4,5-trimethoxyphenyl)pyridin-2-amine], the inhibition at 0.1 µM on EPHA3 was found to be 8%; on GSK3β, 0%; on PRKG2, 0%; on MAP4K4 (setting [1]), 77%; on MAPK3, 1%; at TNK1, 2%. In addition, the inhibition at 0.1 µM on LRRK2-G2019S came out at 16%. The inhibition at 1 µM at EPHA3 was 31%; on GSK3β it was -1%; on PRKG2 it was 1%; on MAP4K4 (setting [1]), 90%; on MAPK3, 0%; at TNK1 it was 16%. Besides, on LRRK2-G2019S, the inhibition at 1 µM was 57%.

Consider `COc1cc(-c2cc(-c3ccc(N4CCNCC4)cc3)cnc2C)cc(OC)c1OC` [Compound 10, 1-(4-(6-methyl-5-(3,4,5-trimethoxyphenyl)pyridin-3-yl)phenyl)piperazine], for which the inhibition at 0.1 µM at EPHA3 was found to be 2%; at GSK3β, 2%; on PRKG2, 0%; at MAP4K4 (setting [2]) it was 34%; on MAP4K4 (setting [1]), 34%; on MAPK3, 1%. For the same compound, the results for the inhibition at 0.1 µM on TNK1 and on LRRK2-G2019S were 5% and 4%, respectively. Also, the inhibition at 1 µM was determined as 3% on EPHA3; 4% at GSK3β; 4% at PRKG2; 92% at MAP4K4 (setting [2]); 92% at MAP4K4 (setting [1]); 2% at MAPK3. The inhibition at 1 µM stood at 2% on TNK1 and 11% on LRRK2-G2019S.
